Publication PMC7619385 (ACS infectious diseases, 2025)
Read-outs that look alike come from different tables or passages of the source.

Target: T1, LmxCLK1 (Leishmania mexicana, UniProt E9AMP2)
T1 sequence (E9AMP2 1-422): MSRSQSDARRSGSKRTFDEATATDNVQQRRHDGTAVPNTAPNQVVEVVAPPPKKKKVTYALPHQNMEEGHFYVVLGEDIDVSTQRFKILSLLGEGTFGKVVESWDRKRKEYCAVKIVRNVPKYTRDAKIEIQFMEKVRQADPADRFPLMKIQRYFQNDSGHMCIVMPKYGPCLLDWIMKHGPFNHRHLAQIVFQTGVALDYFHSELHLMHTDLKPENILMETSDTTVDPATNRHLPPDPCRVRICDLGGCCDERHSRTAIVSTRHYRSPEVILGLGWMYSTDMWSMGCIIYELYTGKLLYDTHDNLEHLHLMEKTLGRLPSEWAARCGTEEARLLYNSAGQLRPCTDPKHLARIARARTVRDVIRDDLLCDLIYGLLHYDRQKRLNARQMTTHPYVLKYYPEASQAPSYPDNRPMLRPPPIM
Assay: biochemical
Assay type: binding
Details: DSF, 10 µM compound

[1] = 2 µM LmxCLK1, Run 1, read-out: ΔTm Run 1
[2] = 2 µM LmxCLK1, Run 2, read-out: ΔTm Run 2
[3] = 2 µM LmxCLK1, mean of two runs, read-out: ΔTm Average

Compound | ΔTm Run 1 (2 µM LmxCLK1, Run 1) | ΔTm Run 2 (2 µM LmxCLK1, Run 2) | ΔTm Average (2 µM LmxCLK1, mean of two runs) | ΔTm at 10 µM [1] | ΔTm at 10 µM [2] | ΔTm at 10 µM [3]
CC(C)c1cnn2c(NCc3ccccc3)cc(NCCCCCCN)nc12.Cl [BS-181 HCl] | -0.3 °C | -0.2 °C | -0.3 °C |  |  | 
O=C(NCCCNc1nc(Nc2cccc(NC(=O)N3CCCC3)c2)ncc1I)c1cccs1 [BX-795] |  |  |  | -0.1 °C | 0.4 °C | 0.2 °C
O=C(Nc1cccc(Nc2ncc(Br)c(NCCc3cnc[nH]3)n2)c1)N1CCCC1 [BX-912] | 0.2 °C | 0.2 °C | 0.2 °C |  |  | 
Cc1nc(NC(=O)N2CCC[C@H]2C(N)=O)sc1-c1ccnc(C(C)(C)C(F)(F)F)c1 [BYL719] |  |  |  | 0.1 °C | 0.2 °C | 0.2 °C
CCN(CCO)CCCOc1ccc2c(Nc3cc(CC(=O)Nc4cccc(F)c4)[nH]n3)ncnc2c1 [Barasertib (AZD1152-HQPA)] | 0.4 °C | -0.1 °C | 0.1 °C |  |  | 
COC(=O)[C@]12CCC(C)(C)C[C@H]1[C@H]1C(=O)C=C3[C@@]4(C)C=C(C#N)C(=O)C(C)(C)[C@@H]4CC[C@@]3(C)[C@]1(C)CC2 [Bardoxolone Methyl] |  |  |  | 0.6 °C | 0.5 °C | 0.5 °C
Cc1cc2c(F)c(Oc3ncnn4cc(OC[C@@H](C)OC(=O)[C@H](C)N)c(C)c34)ccc2[nH]1 [Brivanib Alaninate (BMS-582664)] | 0.3 °C | 0.1 °C | 0.2 °C |  |  | 
NC1(Cc2ccc(Cl)cc2)CCN(c2ncnc3[nH]ccc23)CC1 [CCT128930] | 0.8 °C | 0.6 °C | 0.7 °C |  |  | 
CN(C)c1ccc(-c2nc3ncc(Cl)c(N4CCN(CC(=O)Nc5nccs5)CC4)c3[nH]2)cc1 [CCT129202] | -0.1 °C | 0.0 °C | 0.0 °C |  |  | 
Cc1cc(CN2CCN(c3c(Br)cnc4nc(-c5ccc(N6CCN(C)CC6)cc5)[nH]c34)CC2)no1 [CCT137690] | 0.3 °C | 0.4 °C | 0.3 °C |  |  | 
CN1CCN(c2cccc(Nc3nc4c(-c5ccc(S(C)(=O)=O)cc5)cccn4n3)c2)CC1 [CEP-33779] | 0.5 °C | 0.5 °C | 0.5 °C |  |  | 
Cc1c(NC(=O)c2ccc(C(C)(C)C)cc2)cccc1-c1cn(C)c(=O)c(Nc2ccc(C(=O)N3CCOCC3)cc2)n1 [CGI1746] |  |  |  | 0 °C | -0.4 °C | -0.2 °C
O=C(NC(NC(=S)Nc1ccc(F)c([N+](=O)[O-])c1)C(Cl)(Cl)Cl)C(c1ccccc1)c1ccccc1 (stereo not drawn) [CGK 733] | -0.6 °C | 0.0 °C | -0.3 °C |  |  | 
CS(=O)(=O)N1CCc2c(-c3cnc(N)nc3)nc(N3CCOCC3)nc21 [CH5132799] |  |  |  | 0.4 °C | 0.1 °C | 0.2 °C
O=c1[nH]c2ccc(Cl)cc2c(N[C@@H]2CN3CCC2CC3)c1-c1nc2ccccc2[nH]1 [CHIR-124] | 0.3 °C | 0.0 °C | 0.2 °C |  |  | 
Cc1cnc(-c2cnc(NCCNc3ccc(C#N)cn3)nc2-c2ccc(Cl)cc2Cl)[nH]1.Cl [CHIR-99021 (CT99021) HCl] | 0.0 °C | 0.0 °C | 0.0 °C |  |  | 
C=CC(=O)Nc1cccc(Nc2nc(Nc3ccc(N4CCN(C(C)=O)CC4)cc3OC)ncc2C(F)(F)F)c1 [CO-1686 (AVL-301)] | 0.0 °C | -0.3 °C | -0.1 °C |  |  | 
COCCOc1ccc2c(c1)ncn2-c1ccc2cccc(N3CCC(N)CC3)c2n1 [CP-673451] |  |  |  | 0.1 °C | 0 °C | 0 °C
COCC(=O)NC/C=C/c1ccc2ncnc(Nc3ccc(Oc4ccc(C)nc4)c(C)c3)c2c1 [CP-724714] |  |  |  | 0.6 °C | 0.2 °C | 0.4 °C

Compound | ΔTm Run 1 (2 µM LmxCLK1, Run 1) | ΔTm Run 2 (2 µM LmxCLK1, Run 2) | ΔTm Average (2 µM LmxCLK1, mean of two runs) | ΔTm at 10 µM [1] | ΔTm at 10 µM [2] | ΔTm at 10 µM [3]
C#Cc1cccc(Nc2ncnc3cc(OC)c(OCCCCCCC(=O)NO)cc23)c1 [CUDC-101] |  |  |  | 0.4 °C | 0.2 °C | 0.3 °C
COc1ccc(-c2nc(N3CCOCC3)c3sc(CN(C)c4ncc(C(=O)NO)cn4)cc3n2)cn1 [CUDC-907] |  |  |  | 0.3 °C | -0.2 °C | 0 °C
Cc1nc(N)sc1-c1ccnc(Nc2ccc(N3CCOCC3)cc2)n1 [CYC116] |  |  |  | 0.4 °C | -0.1 °C | 0.1 °C
N#CCNC(=O)c1ccc(-c2ccnc(Nc3ccc(N4CCOCC4)cc3)n2)cc1 [CYT387] |  |  |  | 0 °C | -0.1 °C | 0 °C
CC(C)(C)NS(=O)(=O)c1cncc(-c2cc(F)c3nc(N)nn3c2)c1 [CZC24832] |  |  |  | 0 °C | -0.2 °C | -0.1 °C
COc1cc2nccc(Oc3ccc(NC(=O)C4(C(=O)Nc5ccc(F)cc5)CC4)cc3)c2cc1OC [Cabozantinib (XL184)] | 0.3 °C | -0.2 °C | 0.0 °C |  |  | 
COc1cc2nccc(Oc3ccc(NC(=O)C4(C(=O)Nc5ccc(F)cc5)CC4)cc3)c2cc1OC.O=C(O)C[C@H](O)C(=O)O [Cabozantinib malate (XL184)] | 0.1 °C | -0.3 °C | -0.1 °C |  |  | 
COc1cc2c(Oc3ccc4[nH]c(C)cc4c3F)ncnc2cc1OCCCN1CCCC1 [Cediranib (AZD2171)] | 0.5 °C | 0.1 °C | 0.3 °C |  |  | 
Cc1cc(O)c2c(c1)C(=O)c1cccc(O)c1C2=O [Chrysophanic Acid] |  |  |  | 0 °C | -0.2 °C | -0.1 °C
CC1(COc2ccc3c(c2)ncn3-c2ccc3cccc(N4CCC(N)CC4)c3n2)COC1 [Crenolanib (CP-868596)] | 0.5 °C | -0.1 °C | 0.2 °C |  |  | 
C[C@@H](Oc1cc(-c2cnn(C3CCNCC3)c2)cnc1N)c1c(Cl)ccc(F)c1Cl [Crizotinib (PF-02341066)] | 1.4 °C | 1.4 °C | 1.4 °C |  |  | 
CNC(=O)c1cc(Oc2ccc(NC(=O)Nc3cc(C(C)(C)C)nn3-c3ccc4ncccc4c3)c(F)c2)ccn1 [DCC-2036 (Rebastinib)] | -0.2 °C | -0.4 °C | -0.3 °C |  |  | 
CO[C@@H](C(=O)N1Cc2n[nH]c(NC(=O)c3ccc(N4CCN(C)CC4)cc3)c2C1)c1ccccc1 [Danusertib (PHA-739358)] |  |  |  | 0.3 °C | 0.1 °C | 0.2 °C
CCC[C@H](NC(=O)/C(C#N)=C/c1cccc(Br)n1)c1ccccc1 [Degrasyn (WP1130)] | 0.4 °C | 0.2 °C | 0.3 °C |  |  | 
CC(O)C(=O)O.CC(O)C(=O)O.CN1CCN(c2ccc3nc(-c4c(N)c5c(F)cccc5[nH]c4=O)[nH]c3c2)CC1 [Dovitinib (TKI-258) Dilactic Acid] | -0.5 °C | -0.4 °C | -0.4 °C |  |  | 
CN1CCN(c2ccc3nc(-c4c(N)c5c(F)cccc5[nH]c4=O)[nH]c3c2)CC1 [Dovitinib (TKI-258)] | 0.5 °C | 0.2 °C | 0.3 °C |  |  | 
O=c1cc(CN2CCOCC2)occ1OCCCCCSc1ccnc2cc(C(F)(F)F)ccc12 [EHT 1864] | 0.1 °C | -0.3 °C | -0.1 °C |  |  | 
CCn1c2ccccc2c2cc(Nc3ccnc(NCCCN4CCOCC4)n3)ccc21 [EHop-016] | -0.1 °C | 0.0 °C | 0.0 °C |  |  | 
Cc1cc(Nc2cc(N3CCN(C)CC3)nc(/C=C/c3ccccc3)n2)n[nH]1 [ENMD-2076] |  |  |  | 0.3 °C | 0.1 °C | 0.2 °C
